Source: patent US12338220B2, “Antiviral pyrazolopiridinone compounds” (Novartis AG, priority 2019, dated 2025)
Where two headings read alike, the source gives them in different places.

What was measured:
HSV-polymerase = HSV-polymerase (Human herpesvirus 1 (strain 17) (HHV-1) (Human herpes simplex virus 1), UniProt P04293); experiment: biochemical
CMV-polymerase = CMV-polymerase (Human cytomegalovirus (strain AD169) (HHV-5) (Human herpesvirus 5), UniProt P08546); experiment: biochemical
CMV = experiment: microbe, parasite or virus in culture; assay type: cell-based; conditions: Human betaherpesvirus 5, 72 h, read-out: CMV-Luc Cellular EC50, NN-NHDF cells, MOI 1, 72 hrs
[1] = CMV-polymerase Biochemical IC50
[2] = read-out: CMV-polymerase Biochemical IC50

SMILES | IC50 (HSV-polymerase) [µM] | IC50 (CMV-polymerase; [1]) [µM] | IC50 (CMV-polymerase; [2]) [µM] | EC50 (CMV) [µM]
CC1Cc2c(C(=O)NCc3ccc(C#N)cc3)nn(C)c2C(=O)N1CC1(S(C)(=O)=O)CC1 (single isomer, unassigned) [Example 42, (R)- or (S)-N-(4-cyanobenzyl)-1,5-dimethyl-6-((1-(methylsulfonyl)cyclopropyl)methyl)-7-oxo-4,5,6,7-tetrahydro-1H-pyrazolo[3,4-c]pyridine-3-carboxamide] | 2 | 0.149 |  | 
Cn1nc(C(=O)NCc2ccc(C#N)cc2)c2c1C(=O)N(CC1(S(=O)(=O)C(C)(C)COC(F)CO)CC1)CC2 (single isomer, unassigned) [Example 81, (R)- or (S)-N-(4-cyanobenzyl)-6-((1-((1-(1-fluoro-2-hydroxyethoxy)-2-methylpropan-2-yl)sulfonyl)cyclopropyl)methyl)-1-methyl-7-oxo-4,5,6,7-tetrahydro-1H-pyrazolo[3,4-c]pyridine-3-carboxamide] | 0.046 | 0.003 |  | 
Cn1nc(C(=O)NCc2ccc(C#N)cc2)c2c1C(=O)N(CC1(S(=O)(=O)C(C)(C)COC(F)CN)CC1)CC2 (single isomer, unassigned) [Example 82, (R)- or (S)-6-((1-((1-(2-amino-1-fluoroethoxy)-2-methylpropan-2-yl)sulfonyl)cyclopropyl)methyl)-N-(4-cyanobenzyl)-1-methyl-7-oxo-4,5,6,7-tetrahydro-1H-pyrazolo[3,4-c]pyridine-3-carboxamide] | 0.082 |  | 0.002 | 
Cn1nc(C(=O)NCc2ccc(C#N)cc2)c2c1C(=O)N(CC1(S(=O)(=O)C(C)(C)COC(F)CN)CC1)CC2 (single isomer, unassigned) [Example 83, (R)- or (S)-6-((1-((1-(2-Amino-1-fluoroethoxy)-2-methylpropan-2-yl)sulfonyl)cyclopropyl)methyl)-N-(4-cyanobenzyl)-1-methyl-7-oxo-4,5,6,7-tetrahydro-1H-pyrazolo[3,4-c]pyridine-3-carboxamide] | 0.071 |  | 0.001 | 
CC(O)COCC(C)(C)S(=O)(=O)C1(CN2CCc3c(C(=O)NCc4ccc(C#N)cc4)nn(C)c3C2=O)CC1 (single isomer, unassigned) [Example 91, (R)- or (S)-N-(4-Cyanobenzyl)-6-((1-((1-(2-hydroxypropoxy)-2-methylpropan-2-yl)sulfonyl)cyclopropyl)methyl)-1-methyl-7-oxo-4,5,6,7-tetrahydro-1H-pyrazolo[3,4-c]pyridine-3-carboxamide] | 0.069 | 0.005 |  | 
CC1=NOC(C(C)(C)S(=O)(=O)C2(CN3CCc4c(C(=O)NCc5ccc(C#N)cc5)nn(C)c4C3=O)CC2)C1 (single isomer, unassigned) [Example 111, (R)- or (S)-N-(4-Cyanobenzyl)-1-methyl-6-((1-((2-(3-methyl-4,5-dihydroisoxazol-5-yl)propan-2-yl)sulfonyl)cyclopropyl)methyl)-7-oxo-4,5,6,7-tetrahydro-1H-pyrazolo[3,4-c]pyridine-3-carboxamide] | 0.148 |  | 0.005 | 
CC1=NOC(C(C)(C)S(=O)(=O)C2(CN3CCc4c(C(=O)NCc5ccc(C#N)cc5)nn(C)c4C3=O)CC2)C1 (single isomer, unassigned) [Example 112, (R)- or (S)-N-(4-Cyanobenzyl)-1-methyl-6-((1-((2-(3-methyl-4,5-dihydroisoxazol-5-yl)propan-2-yl)sulfonyl)cyclopropyl)methyl)-7-oxo-4,5,6,7-tetrahydro-1H-pyrazolo[3,4-c]pyridine-3-carboxamide] | 0.089 |  | 0.002 | 
CC(O)CC(C)(C)S(=O)(=O)C1(CN2CCc3c(C(=O)NCc4ccc(C#N)cc4)nn(C)c3C2=O)CC1 (single isomer, unassigned) [Example 116, (R)- or (S)-N-(4-Cyanobenzyl)-6-((1-((4-hydroxy-2-methylpentan-2-yl)sulfonyl)cyclopropyl)methyl)-1-methyl-7-oxo-4,5,6,7-tetrahydro-1H-pyrazolo[3,4-c]pyridine-3-carboxamide] | 0.048 | 0.002 |  | 
Cn1nc(C(=O)NCc2ccc(C#N)cc2)c2c1C(=O)N(CC1(S(=O)(=O)C3(C(O)CO)CC3)CC1)CC2 (single isomer, unassigned) [Example 195, (R)- or (S)-N-(4-Cyanobenzyl)-6-((1-((1-(1,2-dihydroxyethyl)cyclopropyl)sulfonyl)cyclopropyl)methyl)-1-methyl-7-oxo-4,5,6,7-tetrahydro-1H-pyrazolo[3,4-c]pyridine-3-carboxamide] | 0.023 |  |  | 
N#Cc1ccc(CNC(=O)c2nn(CC3(O)CC3)c3c2CCN(CC2(S(=O)(=O)C4CC4)CC2)C3=O)cc1 [Example 228, N-(4-Cyanobenzyl)-6-((1-(cyclopropylsulfonyl)cyclopropyl)methyl)-1-((1-hydroxycyclopropyl)methyl)-7-oxo-4,5,6,7-tetrahydro-1H-pyrazolo[3,4-c]pyridine-3-carboxamide] |  | 0.002 |  | 0.051
CC(C)(O)Cn1nc(C(=O)NCc2ccc(Cl)cc2)c2c1C(=O)N(CC1(S(=O)(=O)C3CC3)CC1)CC2 [Example 229, N-(4-Chlorobenzyl)-6-((1-(cyclopropylsulfonyl)cyclopropyl)methyl)-1-(2-hydroxy-2-methylpropyl)-7-oxo-4,5,6,7-tetrahydro-1H-pyrazolo[3,4-c]pyridine-3-carboxamide] |  | 0.001 |  | 0.02
CC(C)(O)Cn1nc(C(=O)NCc2ccc(C#N)cc2)c2c1C(=O)N(CC1(S(=O)(=O)C3CC3)CC1)CC2 [Example 230, N-(4-Cyanobenzyl)-6-((1-(cyclopropylsulfonyl)cyclopropyl)methyl)-1-(2-hydroxy-2-methylpropyl)-7-oxo-4,5,6,7-tetrahydro-1H-pyrazolo[3,4-c]pyridine-3-carboxamide] |  |  | 0.001 | 0.031
CC(C)(O)Cn1nc(C(=O)NCc2ccc(Cl)cc2)c2c1C(=O)N(CC1(S(C)(=O)=O)CC1)CC2 [Example 231, N-(4-Chlorobenzyl)-1-(2-hydroxy-2-methylpropyl)-6-((1-(methylsulfonyl)cyclopropyl)methyl)-7-oxo-4,5,6,7-tetrahydro-1H-pyrazolo[3,4-c]pyridine-3-carboxamide] |  |  | 0.007 | 0.088
CC(C)(O)Cn1nc(C(=O)NCc2ccc(C#N)cc2)c2c1C(=O)N(CC1(S(C)(=O)=O)CC1)CC2 [Example 232, N-(4-Cyanobenzyl)-1-(2-hydroxy-2-methylpropyl)-6-((1-(methylsulfonyl)cyclopropyl)methyl)-7-oxo-4,5,6,7-tetrahydro-1H-pyrazolo[3,4-c]pyridine-3-carboxamide] |  |  | 0.006 | 0.16
CCS(=O)(=O)C1(CN2CCc3c(C(=O)NCc4ccc(C#N)cc4)nn(CC(C)(C)O)c3C2=O)CC1 [Example 233, N-(4-Cyanobenzyl)-6-((1-(ethylsulfonyl)cyclopropyl)methyl)-1-(2-hydroxy-2-methylpropyl)-7-oxo-4,5,6,7-tetrahydro-1H-pyrazolo[3,4-c]pyridine-3-carboxamide] |  |  | 0.002 | 0.096
CC(C)(O)Cn1nc(C(=O)NCc2ccc(C#N)cc2)c2c1C(=O)N(CC1(S(=O)(=O)C(C)(C)CO)CC1)CC2 [Example 235, N-(4-Cyanobenzyl)-6-((1-((1-hydroxy-2-methylpropan-2-yl)sulfonyl)cyclopropyl)methyl)-1-(2-hydroxy-2-methylpropyl)-7-oxo-4,5,6,7-tetrahydro-1H-pyrazolo[3,4-c]pyridine-3-carboxamide] |  |  | 0.001 | 0.031
N#Cc1ccc(CNC(=O)c2nn(CCCO)c3c2CCN(CC2(S(=O)(=O)C4CC4)CC2)C3=O)cc1 [Example 236, N-(4-Cyanobenzyl)-6-((1-(cyclopropylsulfonyl)cyclopropyl)methyl)-1-(3-hydroxypropyl)-7-oxo-4,5,6,7-tetrahydro-1H-pyrazolo[3,4-c]pyridine-3-carboxamide] |  |  | 0.004 | 0.077
CC1(S(=O)(=O)C2(CN3CCc4c(C(=O)NCc5ccc(C#N)cc5)nn(CCCO)c4C3=O)CC2)CC1 [Example 237, N-(4-Cyanobenzyl)-1-(3-hydroxypropyl)-6-((1-((1-methylcyclopropyl)sulfonyl)cyclopropyl)methyl)-7-oxo-4,5,6,7-tetrahydro-1H-pyrazolo[3,4-c]pyridine-3-carboxamide] |  |  | 0.002 | 0.038
CC(C)(CO)S(=O)(=O)C1(CN2CCc3c(C(=O)NCc4ccc(C#N)cc4)nn(CCOCCBr)c3C2=O)CC1 [Example 238, 1-(2-(2-bromoethoxy)ethyl)-N-(4-cyanobenzyl)-6-((1-((1-hydroxy-2-methylpropan-2-yl)sulfonyl)cyclopropyl)methyl)-7-oxo-4,5,6,7-tetrahydro-1H-pyrazolo[3,4-c]pyridine-3-carboxamide] |  |  | 0.001 | 0.016
CC1(C)COCCOCCn2nc(C(=O)NCc3ccc(C#N)cc3)c3c2C(=O)N(CC3)CC2(CC2)S1(=O)=O [Example 239, Ethylene glycol macrocycle N-(4-cyanobenzyl)carboxamide] |  | 0.001 |  | 0.023
CC1(C)COCCOCCn2nc(C(=O)NCc3ccc(Cl)cc3)c3c2C(=O)N(CC3)CC2(CC2)S1(=O)=O [Example 240, Ethylene glycol macrocycle N-(4-chlorobenzyl)carboxamide] |  | 0.001 |  | 0.043
CC1(C)C(=O)NCCOCCn2nc(C(=O)NCc3ccc(C#N)cc3)c3c2C(=O)N(CC3)CC2(CC2)S1(=O)=O [Example 241, Lactam macrocycle N-(4-cyanobenzyl)carboxamide] |  | 0.013 |  | 0.467
CC1(C)CNCCOCCn2nc(C(=O)NCc3ccc(C#N)cc3)c3c2C(=O)N(CC3)CC2(CC2)S1(=O)=O [Example 242, amine macrocycle N-(4-cyanobenzyl)carboxamide] |  | 0.006 |  | 0.101
